The values below come from patent US20100249419A1, “UTILIZATION OF NOVEL COMPOUNDS WITH AMYLOID AFFINITY AND METHOD OF PRODUCING THE SAME” (NIHON MEDI-PHYSICS CO., LTD., priority 2007, published 2010).

The test system of series [1] is bone marrow cells of Crlj:CD1(ICR) male mouse. In words: Micronucleus test. It counts as in vivo. The following applies: single oral administration 250-2000 mg/kg, 24 and 48 hours. On the procedure: In order to study mutagenicity (in vivo) of Compounds 3 and 7, induction of micronucleated polychromatic erythrocyte (hereinafter referred to as MNPCE) was examined using bone marrow cells of Crlj:CD1(ICR) male mouse.
0 mg/kg (negative control group), 250, 500, 1000 and 2000 mg/kg (test sample group) were set as doses for the test. Mice were sacrificed 24 and 48 hours after single oral administration, and bone marrow smear was prepared and observed. Further, a single dose of MMC at 2 mg/kg was abdominally administrated in positive control group, mice were sacrificed 24 hours after the administration, and then bone marrow smear was prepared and observed.
As statistical analysis, significance tests were conducted by Wilcoxon rank sum test for the appearance frequency of MNPCE and the ratio of polychromatic erythrocyte (hereinafter referred to as PCE) to the total red blood cell (hereinafter referred to as RBC) in each administration group concerning the test sample and positive control groups relative to the negative control group and concerning these groups relative to each other where the significance level was set to less than 5% and less than 1%, respectively.

Series [2] concerns the target T1, aggregated Aβ (Aβ1-42) amyloid (Homo sapiens, UniProt P05067).
T1 construct: Aβ1-42 (manufactured by Wako) was dissolved in phosphate buffer (pH 7.4); purchased Wako
In words: In vitro binding test: inhibition of [^125I]3′-I-BTA-0 binding to amyloid. As to the method:
Affinity of the present compounds with amyloid was examined by the following in vitro binding tests.
The measured radioactivity level was defined as the background radioactivity level, and used in the calculation of the inhibition ratio (hereinafter referred to as BG).
(9) Using the radioactivity levels measured above in (7) and (8), the inhibition ratio was determined by the following formula (1).
A graph in which values converted by probit transformation from the obtained inhibition ratios were plotted relative to logarithms of concentrations of compounds for evaluation was prepared to obtain an approximate straight line by the least square method.

Series [3] relates to Salmonella typhimurium TA98. The series can be described thus: Reverse mutation test (Ames test), TA98. It counts as cell-based. On the procedure: (§1) In order to examine gene mutagenicity of Compounds 3, 5 and 8, reverse mutation test using Salmonella typhimurium TA98 and TA100 (hereinafter referred to as Ames test) was conducted.
(§2) The test was conducted without addition of S9mix and with addition of S9mix. Dimethylsulfoxide (hereinafter referred to as DMSO) was used as a negative control. A positive control was 2-(2-furyl)-3-(5-nitro-2-furyl)acrylamide (hereinafter referred to as AF-2) in case S9mix was not added, and 2-aminoanthracene (hereinafter referred to as 2-AA) in case S9mix was added.
(§3) As a sample solution to be added to a test plate, each compound was dissolved in DMSO to prepare a solution at a concentration of 50 mg/mL, and further, each solution was diluted with DMSO to prepare a solution with 7 dosage (geometric ratio 3). As a sample solution for preparing a sample of positive control, when TA98 was used as a test strain without addition of S9mix, a solution of AF-2 (compound concentration: 1 μg/mL) in DMSO was prepared; when TA100 was used as a test strain without addition of S9mix, a solution of AF-2 (compound concentration: 0.1 μg/mL) in DMSO was prepared; when TA98 was used as a test strain with addition of S9mix, a solution of 2-AA (compound concentration: 5 μg/mL) in DMSO was prepared; and when TA100 was used as a test strain with addition of S9mix, a solution of 2-AA (compound concentration: 10 μg/mL) in DMSO was prepared.
(§4) After each sample solution to be examined and a test strain (TA98 or TA100) were mixed together so as to make the addition amount of each sample to be 0.1 mL/plate, the mixture was multilayered using soft agar on a medium of a test plate, and then incubated at 37° C. for 48 hours. Separately, after each sample solution to be examined, S9mix and a test strain were mixed together so as to make the addition amount of each sample to be 0.1 mL/plate, the mixture was multilayered using soft agar on a medium of a test plate, and then incubated at 37° C. for 48 hours. On the other hand, only DMSO was used as a sample solution to perform the same procedure as above for the negative control. […]
Background: The Ames test detects mutagens through reverse mutation in bacteria.

The subject of series [4] is Salmonella typhimurium TA100. In words: Reverse mutation test (Ames test), TA100. It counts as cell-based. On the procedure:
as §1, §2, §3, §4

For series [5] the following is noted: International Publication No. WO03/106439; cited from earlier work.
For series [6] the following is noted: [^11C]-labeled, rats; cited from earlier work.
The nature of series [7]: Partition coefficient based on the octanol extraction method. It counts as physicochemical. The following applies: octanol / 10 mmol/L phosphate buffer (pH 7.4). On the procedure: Partition coefficients based on the octanol extraction method (hereinafter referred to as log Poctanol) were measured, which are generally known as an indicator of permeability of compounds through the blood-brain barrier (hereinafter referred to as BBB).
A diethyl ether solution of Compound 1 prepared in Example 3 (Example 8), a diethyl ether solution of Compound 2 prepared in Example 6 (Example 9), and a diethyl ether solution of [^123I]-IMPY prepared in Reference Example 1 (Comparative Example 4) were each diluted with 10 mg/mL ascorbic acid-containing physiological saline solution, and adjusted to a radioactive concentration of 20-30 MBq/mL. To 2 mL of octanol, 10 μL each of the prepared sample solutions was added, 2 mL of 10 mmol/L phosphate buffer (pH 7.4) was added, followed by stirring for 30 seconds. After the mixture was centrifuged with a low-speed centrifuge (2000 rpm×60 min.), the octanol layer and the water layer were sampled each in an amount of 1 mL, and subjected to measurement of radioactivity count with an autowell gamma system (Type: ARC-301B, manufactured by Aloka). Using the obtained radioactivity count, log Poctanol was calculated in accordance with the equation (2).
A diethyl ether solution (Example 20) of Compound 4 prepared in Example 16, a diethyl ether solution (Example 21) of Compound 6 prepared in Example 19, and a diethyl ether solution (Comparative Example 7) of [^123I]-IMPY were each diluted with a 10 mg/mL ascorbic acid-containing physiological saline solution to adjust to a radioactive concentration of 20-30 MBq/mL. To 2 mL of octanol, 10 μL each of the prepared sample solution was added, and 2 mL of 10 mmol/L phosphate buffer (pH 7.4) was further added, followed by stirring for 30 seconds. After the mixture was centrifuged with a low-speed centrifuge (2000 rpm×60 min.), the octanol layer and the water layer were sampled each in an amount of 1 mL, and subjected to measurement of radioactivity count with an autowell gamma system (Type: ARC-301B, manufactured by Aloka). Using the obtained radioactivity count, logPoctanol was calculated in accordance with the equation (4).

In series [8] the target is T2, aggregated Aβ (Aβ1-40) injected into amygdaloid nucleus (Homo sapiens, UniProt P05067).
T2 construct: Aβ1-40 (manufactured by Peptide Institute, INC.) was dissolved in phosphate buffer (pH 7.4); purchased Peptide Institute, INC
In words: Ex vivo autoradiogram using rats of amyloid injected model (Aβ1-40). It counts as in vivo, male Wistar rat. The following applies: brain slice 60 minutes after tail vein injection. As to the method:
(1) Aβ1-40 (manufactured by Peptide Institute, INC.) was dissolved in phosphate buffer (pH 7.4) and shaken at 37° C. for 72 hours, to obtain a 1 mg/mL suspension of aggregated Aβ (hereinafter referred to as amyloid suspension in this Example).
(2) 2.5 μL (corresponding to […]) of the amyloid suspension was injected into an amygdaloid nucleus on one side of a male Wistar rat (7-week old). As a control, 2.5 μL of a phosphate buffered physiological saline solution (pH 7.4) was injected into an amygdaloid nucleus on the other side of the rat. The rats were examined 1 day after the injection of the amyloid suspension and the phosphate buffered physiological saline solution (pH 7.4).
(3) [^123I]-IMPY was dissolved in a 10 mg/mL ascorbic acid-containing physiological saline solution to obtain a sample solution (29 MBq/mL in radioactivity concentration in the sample solution). This solution was injected under thiopental anesthesia into the rat through the tail vein (dosage: 0.5 mL, dosed radioactivity: 14.5 MBq equivalent).
(4) Brain was removed 60 minutes after the injection to prepare a brain slice of 10 μm in thickness with a microtome (type: CM3050S, manufactured by LEICA). The brain slice was exposed to an imaging plate for 20 hours, and then image analysis was carried out by use of a Bio-imaging Analyzer (type: BAS-2500; manufactured by FUJIFILM Corporation). […]

Series [9] in a line: Transferability into brain and clearance. It counts as in vivo, male Wistar rats. The following applies: intravenous injection, rats. As to the method: Using Compound 1 (Example 10) and Compound 2 (Example 11), a time course change of radioactive accumulation in brain of male Wistar rats (7-week old) was measured.
A diethyl ether solution of Compound 1 (Example 10) prepared in Example 3, a diethyl ether solution of Compound 2 (Example 11) prepared in Example 6 and a diethyl ether solution of [^123I]-IMPY (Comparative Example 5) prepared in Reference Example 1 were each diluted with 10 mg/mL ascorbic acid-containing physiological saline solution to adjust to a radioactive concentration of 8-12 MBq/mL. 0.05 mL each of the prepared sample solutions was injected under thiopental anesthesia into the tail vein of the rats. The rats were sacrificed by bleeding from abdominal artery, and brains were removed and subjected to measurement of mass of brains and further subjected to measurement of radioactivity (hereinafter referred to as A in this Example) with a single channel analyzer (detector type: SP-20 manufactured by OHYO KOKEN KOGYO Co., Ltd.) 2, 5, 30 and 60 minutes after the injection. Further, the radioactivity level of the rest of the whole body was measured in the same manner as above (hereinafter referred to as B in this Example). Using these measurement results, radioactive distribution per unit weight of brain (% ID/g) at the respective time points were calculated in accordance with the following formula (3).
Three animals were used for the experiment at the respective time points.
Using Compound 4 and Compound 6, a time course change of radioactive accumulation in brain of male Wistar rats (7-week old) was measured.
Compound 4 (Example 22), Compound 6 (Example 23) and a solution of [^123I]-IMPY (Comparative Example 8) prepared above in Reference Example 1 were each diluted with a 10 mg/mL ascorbic acid-containing physiological saline solution to prepare solutions (20-31 MBq/mL in radioactive concentration). 0.05 mL each of the prepared sample solutions was injected under thiopental anesthesia into the tail vein of the respective Wistar rat (7-week old). The rats were sacrificed by bleeding from abdominal artery, and brains were removed and subjected to measurement of mass of brains and further subjected to measurement of radioactivity (hereinafter referred to as A in this Example) with a single channel analyzer (detector type: SP-20 manufactured by OHYO KOKEN KOGYO Co., Ltd.) 2, 5, 30 and 60 minutes after the injection. Further, the radioactivity level of the rest of the whole body was measured in the same manner as above (hereinafter referred to as B in this Example). Using these measurement results, radioactive distribution per unit weight of brain (% ID/g) at the respective time points were calculated in accordance with the following formula (5).

Where [10] appears, read: TA98, without addition of S9mix.
Setting [11] is: TA100, without addition of S9mix.

Molecules are shown by their SMILES.

T1 sequence (P05067 672-713): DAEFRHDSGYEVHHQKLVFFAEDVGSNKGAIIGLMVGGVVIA
T2 sequence (P05067 672-711): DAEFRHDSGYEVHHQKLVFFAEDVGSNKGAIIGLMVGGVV

By IC50 is commonly meant the point on the concentration scale where inhibition reaches its midpoint. A lower IC50 goes with greater potency in that assay. For `OCCOc1ccc(-c2cn3cc(I)ccc3n2)cc1` [Compound 3, 2-[4′-(2″-hydroxyethoxy)phenyl]-6-iodoimidazo[1,2-a]pyridine], the “Mutagenicity (in vivo), induction of MNPCE” value in series [1] is “negative”. For the same compound, the IC50 was 66.9 nM in [2] ([^125I]3′-I-BTA-0 400 pmol/L, amyloid 1 μmol/L, 22° C., 3 hours) and under 100 nM in series [2] (unit inferred). Moreover, the Mutagenicity entry in [3] (TA98, with addition of S9mix) was “Negative”; in series [3] (setting [10]), “Negative”; in [4] (TA100, with addition of S9mix), “Negative”; in series [4] (setting [11]) it was “Negative”.

With `OCCCOc1ccc(-c2cn3cc(I)ccc3n2)cc1` [Compound 7, 2-[4′-(3″-hydroxypropoxy)phenyl]-6-iodoimidazo[1,2-a]pyridine], the “Mutagenicity (in vivo), induction of MNPCE” value in series [1] is “negative”. Moreover, the Mutagenicity entry is recorded as “Negative” in [3] (TA98, with addition of S9mix); “Negative” in series [3] (setting [10]); “Negative” in [4] (TA100, with addition of S9mix); “Negative” in [4] (setting [11]).

In the case of `CC(=C(C#N)C#N)c1ccc2cc(N(C)CCF)ccc2c1` [FDDNP, 2-(1-{6-[(2-fluoroethyl)(methyl)amino]-2-naphthyl}ethylidene)malononitrile], the “Reverse mutation test result” value in series [5] is “positive”.

Take `CN(C)c1ccc(-c2cn3cc(I)ccc3n2)cc1` [IMPY, 6-iodo-2-[4′-(N,N-dimethylamino)phenyl]imidazo[1,2-a]pyridine]: in series [5], the “Reverse mutation test result” value is listed as “positive”.

For `CNc1ccc(/C=C/c2ccc(O)cc2)cc1` [SB-13, (E)-4-methylamino-4′-hydroxystilbene], the “Clearance from normal tissues” value in series [6] was “it cannot be said that the clearance is sufficiently fast”.

For `CN(C)c1ccc(-c2cn3cc([123I])ccc3n2)cc1` [[^123I]-IMPY, reference compound], the logPoctanol value in [7] (Table 4, Examples 8-9) is on record as 1.9; in [7] (Table 6, Examples 20-21), 2.1. Besides, the “Accumulation of radioactivity in amygdaloid nucleus on the amyloid-injected side” value in series [8] was “marked accumulation of radioactivity”. For the same compound, the “Radioactive distribution per unit weight of brain” value in series [9] (After 2 min., Table 5) worked out at 1.19 % ID/g; in series [9] (After 2 min., Table 7) it was 1.19 % ID/g; in series [9] (After 5 min., Table 5), 0.97 % ID/g; in series [9] (After 5 min., Table 7), 0.97 % ID/g; in series [9] (After 30 min., Table 5) it was 0.23 % ID/g; in [9] (After 30 min., Table 7), 0.23 % ID/g. The “Radioactive distribution per unit weight of brain” value in series [9] (After 60 min., Table 5) was determined as 0.09 % ID/g; in series [9] (After 60 min., Table 7), 0.09 % ID/g.
